The values below are quoted from earlier work in paper PMC4195943, “A novel small-molecule MRCK inhibitor blocks cancer cell invasion” (Cell Communication and Signaling : CCS, 2014).

One series addresses Protein Kinase C. Also noted: method as in PMID 2244923. The following applies: read-out: in vitro IC50, Protein Kinase C; cited from earlier work.
For another series, the target named is MRCKα (Homo sapiens, UniProt Q5VT25). Also noted: method as in PMID 21457715. To be noted: read-out: in vitro IC50, MRCKα; cited from earlier work.
Sequence of MRCKα (Q5VT25 whole entry): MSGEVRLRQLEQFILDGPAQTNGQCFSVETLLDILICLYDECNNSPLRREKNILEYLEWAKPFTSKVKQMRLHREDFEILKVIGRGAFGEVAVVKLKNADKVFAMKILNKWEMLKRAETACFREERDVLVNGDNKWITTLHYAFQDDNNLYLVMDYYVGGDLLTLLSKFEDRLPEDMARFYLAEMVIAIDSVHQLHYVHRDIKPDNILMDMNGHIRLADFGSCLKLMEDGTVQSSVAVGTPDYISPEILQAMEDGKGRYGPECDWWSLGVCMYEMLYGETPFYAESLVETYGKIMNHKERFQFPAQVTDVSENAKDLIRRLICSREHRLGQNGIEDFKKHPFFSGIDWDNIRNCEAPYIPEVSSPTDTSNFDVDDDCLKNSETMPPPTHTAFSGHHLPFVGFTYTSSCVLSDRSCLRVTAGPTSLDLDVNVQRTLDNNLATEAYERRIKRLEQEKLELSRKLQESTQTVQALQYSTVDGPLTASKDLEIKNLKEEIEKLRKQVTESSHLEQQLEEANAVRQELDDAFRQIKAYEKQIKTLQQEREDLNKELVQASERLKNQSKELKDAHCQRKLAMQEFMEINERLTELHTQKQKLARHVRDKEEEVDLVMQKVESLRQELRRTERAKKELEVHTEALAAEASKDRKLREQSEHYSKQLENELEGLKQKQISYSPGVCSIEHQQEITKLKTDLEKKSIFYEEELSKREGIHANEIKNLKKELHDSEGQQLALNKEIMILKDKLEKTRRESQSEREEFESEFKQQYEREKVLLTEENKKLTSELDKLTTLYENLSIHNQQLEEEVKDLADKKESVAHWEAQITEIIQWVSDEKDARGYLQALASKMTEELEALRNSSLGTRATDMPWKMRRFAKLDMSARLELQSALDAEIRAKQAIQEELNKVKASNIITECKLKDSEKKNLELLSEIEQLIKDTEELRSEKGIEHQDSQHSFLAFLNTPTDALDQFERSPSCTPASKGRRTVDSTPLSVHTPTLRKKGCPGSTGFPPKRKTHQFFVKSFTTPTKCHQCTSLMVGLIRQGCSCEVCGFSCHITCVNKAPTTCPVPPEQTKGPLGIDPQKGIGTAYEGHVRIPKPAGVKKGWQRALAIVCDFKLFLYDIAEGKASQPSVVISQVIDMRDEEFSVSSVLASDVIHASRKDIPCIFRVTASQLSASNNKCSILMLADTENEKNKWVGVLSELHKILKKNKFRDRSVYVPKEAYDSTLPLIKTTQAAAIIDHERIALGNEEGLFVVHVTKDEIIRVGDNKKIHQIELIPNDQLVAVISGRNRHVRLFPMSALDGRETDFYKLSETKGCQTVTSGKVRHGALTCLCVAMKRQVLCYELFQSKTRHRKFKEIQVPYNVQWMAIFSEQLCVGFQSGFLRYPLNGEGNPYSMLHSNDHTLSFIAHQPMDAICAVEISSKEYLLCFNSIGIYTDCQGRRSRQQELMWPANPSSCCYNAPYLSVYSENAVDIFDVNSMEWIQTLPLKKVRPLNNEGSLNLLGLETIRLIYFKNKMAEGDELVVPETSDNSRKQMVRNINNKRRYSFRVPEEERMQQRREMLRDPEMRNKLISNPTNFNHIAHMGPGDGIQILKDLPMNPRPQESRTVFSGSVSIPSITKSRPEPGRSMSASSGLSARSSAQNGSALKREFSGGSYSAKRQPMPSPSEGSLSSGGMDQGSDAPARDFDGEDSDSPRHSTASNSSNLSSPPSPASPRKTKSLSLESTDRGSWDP

Molecules are shown by their SMILES.

In the case of `COc1ccc2c(c[n+](C)c3c4cc5c(cc4ccc23)OCO5)c1OC` [Chelerythrine], the IC50 (commonly the concentration at which inhibition is half-maximal) is 660 nM at Protein Kinase C and 1770 nM on MRCKα.
